Experimental data reported in patent publication EP4644396A1 (Visionpharma (Nantong) Co., Ltd, priority 2022, dated 2024).
Where two headings read alike, the source gives them in different places.

Tests used:
human TLR7 = target: T1, human TLR7 (Homo sapiens, UniProt Q9NYK1); assay: HEK-Blue hTLR7 SEAP reporter gene inhibition assay; type: cell-based; details: read-out: HEK-Blue hTLR7 IC50
T1 sequence (Q9NYK1 27-1049): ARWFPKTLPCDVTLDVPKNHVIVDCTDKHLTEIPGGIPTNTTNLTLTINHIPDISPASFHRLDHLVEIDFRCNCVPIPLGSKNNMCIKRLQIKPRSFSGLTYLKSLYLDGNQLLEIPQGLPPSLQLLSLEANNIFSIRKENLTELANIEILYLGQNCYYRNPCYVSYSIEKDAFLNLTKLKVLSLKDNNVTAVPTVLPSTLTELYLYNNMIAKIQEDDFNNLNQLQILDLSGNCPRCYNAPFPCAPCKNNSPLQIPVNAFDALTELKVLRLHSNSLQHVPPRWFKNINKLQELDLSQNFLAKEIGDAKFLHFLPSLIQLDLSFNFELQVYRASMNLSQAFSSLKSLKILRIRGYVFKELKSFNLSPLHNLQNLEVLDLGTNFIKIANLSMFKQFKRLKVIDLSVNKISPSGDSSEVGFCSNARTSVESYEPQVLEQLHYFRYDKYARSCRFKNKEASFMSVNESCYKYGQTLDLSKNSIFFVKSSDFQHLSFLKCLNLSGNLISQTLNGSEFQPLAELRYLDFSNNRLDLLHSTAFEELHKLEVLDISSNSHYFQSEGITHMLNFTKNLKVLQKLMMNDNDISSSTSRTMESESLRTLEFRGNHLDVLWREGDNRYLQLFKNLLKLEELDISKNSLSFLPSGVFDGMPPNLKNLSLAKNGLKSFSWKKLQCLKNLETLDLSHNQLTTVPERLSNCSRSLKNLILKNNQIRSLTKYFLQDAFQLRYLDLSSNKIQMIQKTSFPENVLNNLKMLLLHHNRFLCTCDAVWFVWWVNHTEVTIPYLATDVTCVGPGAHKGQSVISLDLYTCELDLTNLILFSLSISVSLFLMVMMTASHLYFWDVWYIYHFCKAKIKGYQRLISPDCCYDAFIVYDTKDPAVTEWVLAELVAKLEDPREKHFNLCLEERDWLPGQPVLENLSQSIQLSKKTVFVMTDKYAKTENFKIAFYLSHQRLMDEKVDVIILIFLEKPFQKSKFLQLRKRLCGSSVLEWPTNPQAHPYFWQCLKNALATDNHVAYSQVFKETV
In short: (§1)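 Compounds (final 0.001–36 µM) were added 15 min before stimulation with 10 µM TLR7 agonist Gardiquimod or 10 µM TLR8 ligand for 20 h. Read-out: SEAP from NF-κB/AP-1 reporter in hTLR7 (80,000 cells/well) or hTLR8 (60,000 cells/well) HEK-Blue cells, via Quanti-Blue; IC50 derived.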

human TLR8 = target: T2, human TLR8 (Homo sapiens, UniProt Q9NR97); assay: HEK-Blue hTLR8 SEAP reporter gene inhibition assay; type: cell-based; details: read-out: HEK-Blue hTLR8 IC50
T2 construct: expressed in transfected cells
T2 sequence (Q9NR97 27-1041): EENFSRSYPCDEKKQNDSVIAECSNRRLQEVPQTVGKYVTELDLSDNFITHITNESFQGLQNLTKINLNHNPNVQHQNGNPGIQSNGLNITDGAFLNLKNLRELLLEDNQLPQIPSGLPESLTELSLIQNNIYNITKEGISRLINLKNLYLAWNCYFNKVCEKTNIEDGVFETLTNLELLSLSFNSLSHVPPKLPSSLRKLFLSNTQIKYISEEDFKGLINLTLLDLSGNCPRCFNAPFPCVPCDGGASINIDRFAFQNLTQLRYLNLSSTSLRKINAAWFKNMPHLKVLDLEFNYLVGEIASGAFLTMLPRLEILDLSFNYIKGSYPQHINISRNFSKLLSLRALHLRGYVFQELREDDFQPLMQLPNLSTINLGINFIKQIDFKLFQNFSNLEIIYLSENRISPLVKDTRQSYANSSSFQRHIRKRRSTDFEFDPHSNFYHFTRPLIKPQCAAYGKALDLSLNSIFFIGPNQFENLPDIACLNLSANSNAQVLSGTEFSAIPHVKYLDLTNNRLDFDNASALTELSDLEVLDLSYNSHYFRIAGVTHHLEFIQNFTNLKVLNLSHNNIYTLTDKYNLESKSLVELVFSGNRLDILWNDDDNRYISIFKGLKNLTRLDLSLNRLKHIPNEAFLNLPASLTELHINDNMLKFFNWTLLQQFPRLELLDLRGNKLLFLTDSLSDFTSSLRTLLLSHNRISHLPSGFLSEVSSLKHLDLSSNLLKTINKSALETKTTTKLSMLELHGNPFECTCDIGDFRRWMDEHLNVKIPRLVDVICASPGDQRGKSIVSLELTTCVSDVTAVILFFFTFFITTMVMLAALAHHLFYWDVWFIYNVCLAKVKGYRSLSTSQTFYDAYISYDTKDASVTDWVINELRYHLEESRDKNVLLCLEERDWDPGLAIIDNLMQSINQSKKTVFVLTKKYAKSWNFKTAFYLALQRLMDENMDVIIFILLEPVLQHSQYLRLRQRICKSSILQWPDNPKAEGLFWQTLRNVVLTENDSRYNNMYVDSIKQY
In short: as §1

[1] = hTLR7 HEK-Blue cells, TLR7 ligand Gardiquimod 10 µM, 20 hours, SEAP by Quanti-blue, class symbols
[2] = hTLR8 HEK-Blue cells, TLR8 ligand 10 µM, 20 hours, SEAP by Quanti-blue, class symbols

## C[C@@H]1CN(c2ccc(C#N)n3ncc(F)c23)Cc2c3c(nn21)C[C@](C)(N1CCC(O)C1)CC3 (stereo partly drawn) [Example I-187, 3-Fluoro-4-((4R,8R)-8-(3-hydroxypyrrolidin-1-yl)-4,8-dimethyl-3,4,7,8,9,10-hexahydropyrazino[1,2-b]indazol-2(1H)-yl)pyrazolo[1,5-a]pyridine-7-carbonitrile]
Human TLR7; [1]
  IC50: < 0.05 µM
Human TLR8; [2]
  IC50: < 0.1 µM

## C[C@@H]1CN(c2ccc(C#N)n3ncc(F)c23)Cc2c3c(nn21)C[C@@](C)(N1CCC(O)C1)CC3 (stereo partly drawn) [Example I-188, 3-Fluoro-4-((4R,8S)-8-(3-hydroxypyrrolidin-1-yl)-4,8-dimethyl-3,4,7,8,9,10-hexahydropyrazino[1,2-b]indazol-2(1H)-yl)pyrazolo[1,5-a]pyridine-7-carbonitrile]
Human TLR7; [1]
  IC50: > 0.05 µM
Human TLR8; [2]
  IC50: < 0.1 µM

## COC(=O)C1(CN2Cc3nn4c(c3C[C@@H]2C)CN(c2ccc(C#N)n3ncc(F)c23)C[C@H]4C)CC1 [Example I-192, Methyl 1-(((4R,9S)-2-(7-cyano-3-fluoropyrazolo [1,5-a]pyridin-4-yl)-4,9-dimethyl-1,2,3,4,9,10-hexahydropyrido[3',4':3,4]pyrazolo[1,5-a]pyrazin-8(7H)-yl)methyl) cyclopropane-1-carboxylate]
Human TLR7; [1]
  IC50: > 0.05 µM
Human TLR8; [2]
  IC50: < 0.1 µM

## C[C@@H]1CN(c2ccc(C#N)n3ncc(F)c23)Cc2c3c(nn21)CN(CC12CC(C(N)=O)(C1)C2)[C@@H](C)C3 [Example I-193, 3-(((4R,9S)-2-(7-cyano-3-fluoropyrazolo [1,5-a]pyridin-4-yl)-4,9-dimethyl-1,2,3,4,9,10-hexahydropyrido[3',4':3,4]pyrazolo[1,5-a]pyrazin-8(7H)-yl)methyl)bicyclo[1.1.1] pentane-1-carboxamide]
Human TLR7; [1]
  IC50: > 0.05 µM
Human TLR8; [2]
  IC50: < 0.1 µM

## C[C@@H]1CN(c2ccc(C#N)n3ncc(F)c23)Cc2c3c(nn21)CN(CC(C)(C)C(N)=O)[C@@H](C)C3 [Example I-198, 3-((4R,9S)-2-(7-cyano-3-fluoropyrazolo[1,5-a]pyridin-4-yl)-4,9-dimethyl-1,2,3,4,9,10-hexahydropyrido[3',4':3,4]pyrazolo[1,5-a]pyrazin-8(7H)-yl)-2,2-dimethyl propanamide]
Human TLR7; [1]
  IC50: > 0.05 µM
Human TLR8; [2]
  IC50: > 0.1 µM

## C[C@@H]1CN(c2ccc(C#N)n3ncc(F)c23)Cc2c3c(nn21)CN(CC1(C(N)=O)CC1)[C@@H](C)C3 [Example I-204, 1-(((4R,9S)-2-(7-cyano-3-fluoropyrazolo [1,5-a]pyridin-4-yl)-4,9-dimethyl-1,2,3,4,9,10-hexahydropyrido[3',4':3,4]pyrazolo[1,5-a]pyrazin-8(7H)-yl)methyl)cyclopropane-1-carboxamide]
Human TLR7; [1]
  IC50: < 0.05 µM
Human TLR8; [2]
  IC50: > 0.1 µM

## C[C@@H]1CN(c2ccc(C#N)n3ncc(F)c23)Cc2c3c(nn21)CN(C[C@@](C)(O)CO)[C@@H](C)C3 [Example I-224, 4-((4R,9S)-8-((R)-2,3-dihydroxy-2-methylpropyl)-4,9-dimethyl-3,4,7,8,9,10-hexahydropyrido[3',4':3,4]pyrazolo[1,5-a]pyrazin-2(1H)-yl)-3-fluoropyrazolo[1,5-a]pyridine-7-carbonitrile]
Human TLR7; [1]
  IC50: < 0.05 µM
Human TLR8; [2]
  IC50: < 0.1 µM

## C[C@@H]1CN(c2ccc(C#N)n3ncc(F)c23)Cc2c3c(nn21)CN(CC(C)(CO)CO)[C@@H](C)C3 [Example I-225, 3-Fluoro-4-((4R,9S)-8-(3-hydroxy-2-(hydroxymethyl)-2-methylpropyl)-4,9-dimethyl-3,4,7,8,9,10-hexahydropyrido[3',4':3,4]pyrazolo[1,5-a]pyrazin-2(1H)-yl)pyrazolo[1,5-a]pyridine-7-carbonitrile]
Human TLR7
  IC50: > 0.05 µM
Human TLR8
  IC50: > 0.1 µM

## C[C@@H]1CN(c2ccc(C#N)n3ncc(F)c23)Cc2c3c(nn21)CN(C[C@](C)(O)CO)[C@@H](C)C3 [Example I-226, 4-((4R,9S)-8-((S)-2,3-dihydroxy-2-methylpropyl)-4,9-dimethyl-3,4,7,8,9,10-hexahydropyrido[3',4':3,4]pyrazolo[1,5-a]pyrazin-2(1H)-yl)-3-fluoropyrazolo[1,5-a]pyridine-7-carbonitrile]
Human TLR7; [1]
  IC50: < 0.05 µM
Human TLR8; [2]
  IC50: > 0.1 µM

## N#Cc1ccc(N2C[C@H](N)C[C@H](C(F)(F)F)C2)c2cccnc12 [Example M5049, reference compound]
Human TLR7; hTLR7 HEK-Blue cells, TLR7 ligand Gardiquimod 10 µM, 20 hours, SEAP by Quanti-blue, numeric value
  IC50: 0.064 µM
Human TLR8; hTLR8 HEK-Blue cells, TLR8 ligand 10 µM, 20 hours, SEAP by Quanti-blue, numeric value
  IC50: 0.15 µM

## N-(tert-butyl)-2-((4R,9S)-2-(7-cyano-3-fluoropyrazolo[1,5-a]pyridin-4-yl)-4,9-dimethyl-1,2,3,4,9,10-hexahydropyrido[3',4':3,4]pyrazolo[1,5-a]pyrazin-8(7H)-yl)acetamide [Example I-154]
Human TLR7; [1]
  IC50: > 0.05 µM
Human TLR8; [2]
  IC50: > 0.1 µM
